Laboratory results reported in patent US10471139B2, “Toll-like receptor agonists” (The University of Kansas, priority 2013, dated 2019).
Like-named read-outs stand apart in the source and are kept apart here.

Experiments:
Format in all cases: cell-based
[1] = biological target: T1, human TLR7 (Homo sapiens, UniProt Q9NYK1); test: Human TLR7 reporter gene assay (NF-κB induction), HEK-Blue-7 cells
T1 construct: expressed in transfected cells; host or cells: HEK293 (HEK-Blue-7)
T1 sequence (Q9NYK1 27-1049): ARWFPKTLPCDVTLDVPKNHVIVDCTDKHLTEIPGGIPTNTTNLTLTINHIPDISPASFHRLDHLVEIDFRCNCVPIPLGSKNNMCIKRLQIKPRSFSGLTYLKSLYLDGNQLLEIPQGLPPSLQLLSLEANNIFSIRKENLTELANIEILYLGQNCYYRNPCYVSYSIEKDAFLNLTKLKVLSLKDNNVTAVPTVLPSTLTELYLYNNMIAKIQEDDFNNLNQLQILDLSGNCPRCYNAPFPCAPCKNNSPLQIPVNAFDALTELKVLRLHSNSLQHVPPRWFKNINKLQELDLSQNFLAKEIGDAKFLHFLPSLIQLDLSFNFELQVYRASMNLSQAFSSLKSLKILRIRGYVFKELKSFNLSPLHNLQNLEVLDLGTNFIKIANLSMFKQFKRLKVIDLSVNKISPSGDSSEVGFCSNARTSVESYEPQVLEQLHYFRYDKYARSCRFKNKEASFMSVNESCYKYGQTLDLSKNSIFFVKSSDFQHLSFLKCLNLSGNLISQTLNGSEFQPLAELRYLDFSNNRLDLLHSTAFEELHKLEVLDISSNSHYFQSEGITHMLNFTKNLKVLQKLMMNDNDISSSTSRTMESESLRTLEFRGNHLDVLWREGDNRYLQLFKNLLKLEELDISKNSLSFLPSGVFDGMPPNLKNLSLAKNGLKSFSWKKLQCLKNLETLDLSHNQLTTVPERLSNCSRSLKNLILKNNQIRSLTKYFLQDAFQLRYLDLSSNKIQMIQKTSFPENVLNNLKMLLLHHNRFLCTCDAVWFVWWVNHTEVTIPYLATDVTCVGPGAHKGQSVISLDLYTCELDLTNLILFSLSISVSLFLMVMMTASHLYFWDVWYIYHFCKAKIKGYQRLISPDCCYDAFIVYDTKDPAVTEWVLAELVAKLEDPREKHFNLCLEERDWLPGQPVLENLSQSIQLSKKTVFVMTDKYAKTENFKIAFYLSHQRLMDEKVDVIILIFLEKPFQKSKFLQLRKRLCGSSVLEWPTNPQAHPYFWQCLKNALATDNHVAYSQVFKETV
Source text: Human TLR-7/-8 Reporter Gene Assays (NF-κB Induction).
The induction of NF-κB was quantified using HEK-Blue-7 (hTLR7-specific) and HEK-Blue-8 (hTLR8-specific) cells. HEK293 cells stably co-transfected with human TLR7 or human TLR8, MD2, and secreted alkaline phosphatase (sAP), were maintained in HEK-Blue™ Selection medium containing zeocin and normocin. Stable expression of secreted alkaline phosphatase (sAP) under control of NF-κB/AP-1 promoters is inducible by appropriate TLR agonists, and extracellular sAP in the supernatant is proportional to NF-κB induction.
HEK293 cells stably co-transfected with the appropriate hTLR (or NOD) and secreted alkaline phosphatase (sAP) were maintained in HEK-Blue™ Selection medium. Stable expression of secreted alkaline phosphatase (sAP) under control of NF-κB/AP-1 promoters is inducible by appropriate TLR/NOD agonists, and extracellular sAP in the supernatant is proportional to NF-κB induction.

[2] = biological target: T2, human TLR8 (Homo sapiens, UniProt Q9NR97); test: Human TLR8 reporter gene assay (NF-κB induction), HEK-Blue-8 cells; settings: TLR7 series
T2 construct: expressed in transfected cells; host or cells: HEK293 (HEK-Blue-8)
T2 sequence (Q9NR97 27-1041): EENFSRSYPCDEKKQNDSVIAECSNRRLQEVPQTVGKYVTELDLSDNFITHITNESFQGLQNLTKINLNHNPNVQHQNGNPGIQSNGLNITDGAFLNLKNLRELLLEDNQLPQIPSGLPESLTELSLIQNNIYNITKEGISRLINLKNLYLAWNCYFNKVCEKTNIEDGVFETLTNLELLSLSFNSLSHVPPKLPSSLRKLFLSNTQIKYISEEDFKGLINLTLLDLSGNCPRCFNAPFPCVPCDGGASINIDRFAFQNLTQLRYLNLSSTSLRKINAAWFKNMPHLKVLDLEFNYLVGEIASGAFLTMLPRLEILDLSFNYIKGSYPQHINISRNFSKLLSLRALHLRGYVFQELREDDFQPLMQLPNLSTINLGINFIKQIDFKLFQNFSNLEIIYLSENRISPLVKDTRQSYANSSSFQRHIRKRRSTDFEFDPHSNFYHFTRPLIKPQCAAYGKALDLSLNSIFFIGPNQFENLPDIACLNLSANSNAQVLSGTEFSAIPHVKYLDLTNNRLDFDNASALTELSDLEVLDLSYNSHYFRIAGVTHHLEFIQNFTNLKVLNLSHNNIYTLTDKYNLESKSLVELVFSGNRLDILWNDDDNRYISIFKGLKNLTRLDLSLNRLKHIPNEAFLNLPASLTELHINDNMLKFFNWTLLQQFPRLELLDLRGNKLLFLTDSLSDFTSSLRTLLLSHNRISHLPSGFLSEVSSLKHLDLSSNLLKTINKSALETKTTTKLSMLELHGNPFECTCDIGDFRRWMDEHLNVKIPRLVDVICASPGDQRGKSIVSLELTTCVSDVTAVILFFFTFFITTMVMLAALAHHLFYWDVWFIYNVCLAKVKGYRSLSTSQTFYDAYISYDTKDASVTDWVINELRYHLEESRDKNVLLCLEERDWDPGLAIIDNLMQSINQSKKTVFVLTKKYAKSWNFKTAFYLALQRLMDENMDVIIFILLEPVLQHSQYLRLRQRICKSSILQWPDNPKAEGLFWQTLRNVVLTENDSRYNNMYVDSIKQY

[3] = system: human PBMCs; test: IFN-α induction in human PBMCs (ELISA); settings: PBMC
Procedure: Fresh human peripheral blood mononuclear cells (hPBMC) were isolated from human blood obtained by venipuncture with informed consent and as per institutional guidelines on Ficoll-Hypaque gradients as described elsewhere. Aliquots of PBMCs (10^5 cells in 100 μL/well) were stimulated for 12 h with graded concentrations of test compounds. Supernatants were isolated by centrifugation, and were assayed in triplicates using either high-sensitivity multi-subtype IFN-α ELISA kits (PBL Interferon Source, Piscataway, N.J. and R&D Systems, Inc., Minneapolis, Minn.), or analyte-specific multiplexed cytokine/chemokine bead array assays as reported by us previously.

[4] = human TLR7-specific reporter gene assay, Inactive = no activity up to 500 μg/mL, read-out: hTLR7-agonistic Activity (EC50)
[5] = human TLR7-specific reporter gene assay, Inactive = no activity up to 500 μg/mL

EC50 [1, 4] [nM]	hTLR7-agonistic Activity (EC50) [1, 5]	SMILES	further results
		CCCCc1nc2c(N)nccc2n1Cc1ccccc1 [Compound 5, 1-Benzyl-2-butyl-1H-imidazo[4,5-c]pyridin-4-amine]	EC50 ([1]; primary screen, read-out: TLR7-specific agonistic activity EC50): 1570 nM; TLR8 activity [2]: negligible
75		CCCCc1nc2c(N)nc(NCc3ccco3)cc2n1Cc1ccccc1 [Compound 19k, 1-Benzyl-2-butyl-N^6-(furan-2-ylmethyl)-1H-imidazo[4,5-c]pyridine-4,6-diamine]	TLR7-agonistic potency relative to compound 5 ([1]; fold over compound 5): approximately twenty-fold; EC50 [3]: 700 nM
	Inactive	CCCCc1nc2c(N)nc(-c3ccc(C(N)=O)cc3)cc2n1Cc1ccccc1 [Compound 23c, 4-(4-Amino-1-benzyl-2-butyl-1H-imidazo[4,5-c]pyridin-6-yl)benzamide]	
	Inactive	CCCCc1nc2c(N)nc(-c3cccnc3)cc2n1Cc1ccccc1 [Compound 23d, 1-Benzyl-2-butyl-6-(pyridin-3-yl)-1H-imidazo[4,5-c]pyridin-4-amine]	
	Inactive	CCCCc1nc2c(N)nc(-c3ccoc3)cc2n1Cc1ccccc1 [Compound 23e, 1-Benzyl-2-butyl-6-(furan-3-yl)-1H-imidazo[4,5-c]pyridin-4-amine]	
	Inactive	CCCCc1nc2c(N)nc(-c3ccsc3)cc2n1Cc1ccccc1 [Compound 23f, 1-Benzyl-2-butyl-6-(thiophen-3-yl)-1H-imidazo[4,5-c]pyridin-4-amine]	
280		CCCCc1nc2c(N)nc(Cc3ccccc3)cc2n1Cc1ccccc1 [Compound 23g, 1,6-Dibenzyl-2-butyl-1H-imidazo[4,5-c]pyridin-4-amine]	TLR7-specific agonistic activity EC50 ([1]; primary screen): restored
1800		CCCCc1nc2c(N)nc(Cc3ccc(C)cc3)cc2n1Cc1ccccc1 [Compound 23h, 1-Benzyl-2-butyl-6-(4-methylbenzyl)-1H-imidazo[4,5-c]pyridin-4-amine]	
	Inactive	CCCCc1nc2c(N)nc(Cc3ccc(OC(F)(F)F)cc3)cc2n1Cc1ccccc1 [Compound 23i, 1-Benzyl-2-butyl-6-(4-(trifluoromethoxy)benzyl)-1H-imidazo[4,5-c]pyridin-4-amine]	
570		CCCCc1nc2c(N)nc(CCc3ccccc3)cc2n1Cc1ccccc1 [Compound 23j, 1-Benzyl-2-butyl-6-phenethyl-1H-imidazo[4,5-c]pyridin-4-amine]	TLR7-specific agonistic activity EC50 ([1]; primary screen): restored
